Values joined by “and” are separate entries in the source; they are usually repeats but may differ in a detail not shown here. Equal values may be shown once.

Common to all, as to format: in vivo
One assay deals with diabetic mice. The experiment in a line: Reduction of blood glucose in streptozotocin diabetic mice. To be noted: for Blood glucose level at different time points after administration: 13.3 mL/kg intragastric at 9 am and 9 pm every day; for Blood glucose level before administration: baseline, STZ diabetic mice. Here is the method: Male ICR mice, 8 weeks old, 20±2 g in body weight, were purchased from Beijing HFK Bioscience Co., Ltd.
Also, the solutions of Compositions 1-7 were used in this Example.
I. Modeling: Before experiment started, a 0.1 mol/L sodium citrate buffer (pH4.5) was prepared. It was sterilized in an autoclave and then stored in a refrigerator at 4° C. Before the modeling began, this sodium citrate buffer was used to freshly prepare a 10 mg/mL solution of streptozotocin (STZ) in an ice bath. The mice were fed normally for 3 days, and then they were intraperitoneally administered with the freshly prepared STZ solution at a dose of 45 mg/kg for 5 consecutive days once a day.
II. Treatment: After the model was successfully established, the mice had not been administered with streptozotocin solution were arranged in a group, i.e., the normal group, and normally fed. The diabetic mice were randomly divided into 11 groups depending on blood glucose level, the groups being a model group, administration groups 1 to 7 and negative control groups 1 to 3. The mice in administration groups 1 to 7 were respectively intragastrically given the solution of Composition 1 to 7 prepared in this Example at a dose of 13.3 mL/kg body weight. The mice in the model group were intragastrically given sterile water for medical use at a dose of 13.3 mL/kg body weight. The mice in negative control groups 1 to 3 were respectively intragastrically administered with the solution of trehalose (0.15 g/mL), the solution of validamycin (0.3 mg/mL) and the solution of algal polysaccharides (0.15 g/mL) at a dose of 13.3 mL/kg body weight. The administration was conducted at 9 am and 9 pm every day, and blood glucose level was checked by Roche blood glucose meter once every other week for 5 weeks.

The subject of assay [1] is patients with type-II diabetes. The experiment in a line: Short-term experiment for treatment in human diabetics. To be noted: for effect on blood glucose level in patients with type-II diabetes, short-term / Blood glucose level after administration: 200 mL oral; for Blood glucose level after administration / Blood glucose level before administration: individual type-II diabetes patients; for Blood glucose level before administration: fasting baseline. Here is the method:
Six patients with type-II diabetes were fasted overnight and then measured for fasting blood glucose level. Then they were orally administered with 200 mL of the solution of Composition 1, or 200 mL of solution of trehalose (0.15 g/mL), or 200 mL of the solution of validamycin (0.3 mg/mL), or 200 mL of distilled water, as stated in Table 3.3. The blood glucose level in every patient was tested before administration and 30 min, 60 min and 120 min post administration.

The test system of assay [2] is patients with type-II diabetes. The experiment in a line: Long-term experiment for treatment in human diabetics. To be noted: for Blood glucose level after administration: 200 mL oral. Here is the method: Six patients with type-II diabetes were fasted overnight and then measured for fasting blood glucose level. Then they were orally administered with 200 mL of the solution of Composition 1, or 200 mL of solution of trehalose (0.15 g/mL), or 200 mL of the solution of validamycin (0.3 mg/mL), or 200 mL of distilled water, as stated in Table 3.4. The blood glucose level in every patient was tested before administration and one day, one week, two weeks and one month post administration.

With `OCC1=C[C@H](N[C@H]2C[C@H](CO)[C@@H](O[C@@H]3O[C@H](CO)[C@@H](O)[C@H](O)[C@H]3O)[C@H](O)[C@H]2O)[C@H](O)[C@@H](O)[C@@H]1O` [validamycin], the “Blood glucose level at different time points after administration” value worked out at 20.20 ± 2.11 mmol/L in the assay on diabetic mice (1 week); 22.51 ± 2.28 mmol/L in the assay with diabetic mice (2 weeks); 23.57 ± 2.06 mmol/L in the assay with diabetic mice (3 weeks); 23.57 ± 1.07 mmol/L in the assay with diabetic mice (4 weeks); 24.01 ± 1.25 mmol/L in the assay with diabetic mice (5 weeks). Further, the “Blood glucose level before administration” value in the assay with diabetic mice was 18.27 ± 2.13 mmol/L; in assay [1] (listed as Solution of validamycin), 9.3 mmol/L and 15.5 mmol/L; in assay [2] (fasting baseline, individual type-II diabetics, long-term), 8.8 mmol/L. In addition, the “effect on blood glucose level in patients with type-II diabetes, short-term” value in assay [1] is reported as “had no influence on blood glucose level”. Besides, the “Blood glucose level after administration” value was 9.5 mmol/L and 15.7 mmol/L in assay [1] (30 min, listed as Solution of validamycin); 9.6 mmol/L and 16.1 mmol/L in assay [1] (60 min, listed as Solution of validamycin); 9.1 mmol/L and 14.8 mmol/L in assay [1] (120 min, listed as Solution of validamycin); 8.9 mmol/L in assay [2] (1 month, individual type-II diabetics); 9.0 mmol/L in assay [2] (1 week, individual type-II diabetics); 8.7 mmol/L in assay [2] (2 weeks, individual type-II diabetics). For the same compound, the “Blood glucose level after administration” value in assay [2] (1 day, individual type-II diabetics) came to 8.7 mmol/L. For the same compound, in assay [2] (up to one month), the “effect on blood glucose level in patients with type-II diabetes, long-term” value is recorded as “had no influence on blood glucose level”.
For the compound `OC[C@H]1O[C@H](O[C@H]2O[C@H](CO)[C@@H](O)[C@H](O)[C@H]2O)[C@H](O)[C@@H](O)[C@@H]1O` [trehalose], the “Blood glucose level at different time points after administration” value with diabetic mice (1 week) came to 22.15 ± 2.14 mmol/L; in the assay on diabetic mice (2 weeks), 24.50 ± 2.35 mmol/L; in the assay with diabetic mice (3 weeks), 25.33 ± 2.15 mmol/L; in the assay on diabetic mice (4 weeks) it was 26.47 ± 2.12 mmol/L; in the assay on diabetic mice (5 weeks), 27.16 ± 1.01 mmol/L. Further, the “Blood glucose level before administration” value in the assay on diabetic mice was found to be 18.40 ± 2.07 mmol/L; in assay [1] it was 15.3 mmol/L. Moreover, the “effect on blood glucose level in patients with type-II diabetes, short-term” value in assay [1] is on record as “significantly raised the blood glucose level”. The entries for the “Blood glucose level after administration” value in assay [1] (30 min), in assay [1] (60 min) and in assay [1] (120 min) were 25.5 mmol/L, 20.1 mmol/L and 17.3 mmol/L, respectively.
